Source: US20250282799A1, “SUBSTITUTED PYRIDO[4,3-d]PYRIMIDINES AS KRAS MODULATORS” (Alterome Therapeutics, Inc., priority 2023, published 2025)

Tested on: KRAS G12V dependent lung adenocarcinoma cell line, NCI-H441
Assay: Cellular pERK (Thr202/Tyr204) FRET/HTRF assay
Type: cell-based
Details: Homo sapiens, NCI-H441, cellular pERK (Thr202/Tyr204) HTRF, NCI-H441 cells
Method in brief: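 NCI-H441 cells (KRAS G12V) plated overnight at 37 °C, then exposed to compounds for 1 hr at 37 °C, 5% CO2; DMSO as negative control. Lysates read by Eu-cryptate/d2 sandwich FRET (665 nm) for ERK1/2 phosphorylated at Thr202/Tyr204; IC50 from curve fit.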

Row | Compound | IC50
1 | Nc1cc(Cl)c(C(F)(F)F)c(-c2ncc3c(N4CCCC[C@H]5[C@H](F)[C@H]54)nc(OC[C@@]45CCCN4C/C(=C/F)C5)nc3c2F)c1 [Example 371, 3-chloro-5-(8-fluoro-4-((1S,7R,8S)-8-fluoro-2-azabicyclo[5.1.0]octan-2-yl)-2-(((S,E)-2-(fluoromethylene)tetrahydro-1H-pyrrolizin-7a(5H)-yl)methoxy)pyrido[4,3-d]pyrimidin-7-yl)-4-(trifluoromethyl)aniline] | < 50 nM
2 | Nc1cc(Cl)c(C(F)(F)F)c(-c2ncc3c(N4CCCC[C@@H]5[C@@H](F)[C@@H]54)nc(OC[C@@]45CCCN4C/C(=C/F)C5)nc3c2F)c1 [Example 372, 3-chloro-5-(8-fluoro-4-((1R,7S,8R)-8-fluoro-2-azabicyclo[5.1.0]octan-2-yl)-2-(((S,E)-2-(fluoromethylene)tetrahydro-1H-pyrrolizin-7a(5H)-yl)methoxy)pyrido[4,3-d]pyrimidin-7-yl)-4-(trifluoromethyl)aniline] | 500 to 10000 nM
3 | Nc1cc(Cl)c(C(F)(F)F)c(-c2ncc3c(N4CCCC[C@H]5[C@H](F)[C@H]54)nc(OC[C@@]45CCCN4C/C(=C\F)C5)nc3c2F)c1 [Example 373, 3-chloro-5-(8-fluoro-4-((1S,7R,8S)-8-fluoro-2-azabicyclo[5.1.0]octan-2-yl)-2-(((S,Z)-2-(fluoromethylene)tetrahydro-1H-pyrrolizin-7a(5H)-yl)methoxy)pyrido[4,3-d]pyrimidin-7-yl)-4-(trifluoromethyl)aniline] | < 50 nM
4 | Nc1cc(Cl)c(C(F)(F)F)c(-c2ncc3c(N4CCCC[C@@H]5[C@@H](F)[C@@H]54)nc(OC[C@@]45CCCN4C/C(=C\F)C5)nc3c2F)c1 [Example 374, 3-chloro-5-(8-fluoro-4-((1R,7S,8R)-8-fluoro-2-azabicyclo[5.1.0]octan-2-yl)-2-(((S,Z)-2-(fluoromethylene)tetrahydro-1H-pyrrolizin-7a(5H)-yl)methoxy)pyrido[4,3-d]pyrimidin-7-yl)-4-(trifluoromethyl)aniline] | 500 to 10000 nM
5 | C#Cc1c(F)ccc2cccc(-c3ncc4c(N5CCOC[C@H]6[C@H](F)[C@H]65)nc(OC[C@]56C/C(=C\F)CN5CCC65CC5)nc4c3F)c12 [Example 375, (1S,7S,8S)-2-(7-(8-Ethynyl-7-fluoronaphthalen-1-yl)-8-fluoro-2-(((R,E)-6′-(fluoromethylene)tetrahydrospiro[cyclopropane-1,1′-pyrrolizin]-7a′(5′H)-yl)methoxy)pyrido[4,3-d]pyrimidin-4-yl)-8-fluoro-5-oxa-2-azabicyclo[5.1.0]octane] | < 50 nM
6 | C#Cc1c(F)ccc2cccc(-c3ncc4c(N5CCOC[C@H]6[C@H](F)[C@H]65)nc(OC[C@]56C/C(=C/F)CN5CCC65CC5)nc4c3F)c12 [Example 376, (1S,7S,8S)-2-(7-(8-Ethynyl-7-fluoronaphthalen-1-yl)-8-fluoro-2-(((R,Z)-6′-(fluoromethylene)tetrahydrospiro[cyclopropane-1,1′-pyrrolizin]-7a′(5′H)-yl)methoxy)pyrido[4,3-d]pyrimidin-4-yl)-8-fluoro-5-oxa-2-azabicyclo[5.1.0]octane] | < 50 nM
7 | C#Cc1c(F)ccc2cccc(-c3ncc4c(N5CCCC[C@H]6[C@H](F)[C@H]65)nc(OC[C@]56C/C(=C\F)CN5CCC65CC5)nc4c3F)c12 [Example 377, (R,E)-7a′-(((7-(8-ethynyl-7-fluoronaphthalen-1-yl)-8-fluoro-4-((1S,7R,8S)-8-fluoro-2-azabicyclo[5.1.0]octan-2-yl)pyrido[4,3-d]pyrimidin-2-yl)oxy)methyl)-6′-(fluoromethylene)hexahydrospiro[cyclopropane-1,1′-pyrrolizine]] | < 50 nM

The remaining lines, values ahead:

Row | IC50 | Compound
8 | 50 to 500 nM | Nc1cc(Cl)c(C(F)(F)F)c(-c2ncc3c(N4CCCC[C@H]5[C@H](F)[C@H]54)nc(OC[C@]45C/C(=C\F)CN4CCC54CC4)nc3c2F)c1 [Example 378, 3-chloro-5-(8-fluoro-4-((1S,7R,8S)-8-fluoro-2-azabicyclo[5.1.0]octan-2-yl)-2-(((R,E)-6′-(fluoromethylene)tetrahydrospiro[cyclopropane-1,1′-pyrrolizin]-7a′(5′H)-yl)methoxy)pyrido[4,3-d]pyrimidin-7-yl)-4-(trifluoromethyl)aniline]
9 | 50 to 500 nM | C=C1CN2CCC3(CC3)[C@@]2(COc2nc(N3CCCC[C@H]4[C@H](F)[C@H]43)c3cnc(-c4cc(N)c(F)c(C)c4C(F)(F)F)c(F)c3n2)C1 [Example 379, 2-fluoro-5-(8-fluoro-4-((1S,7R,8S)-8-fluoro-2-azabicyclo[5.1.0]octan-2-yl)-2-(((R)-6′-methylenetetrahydrospiro[cyclopropane-1,1′-pyrrolizin]-7a′(5′H)-yl)methoxy)pyrido[4,3-d]pyrimidin-7-yl)-3-methyl-4-(trifluoromethyl)aniline]
10 | 50 to 500 nM | Cc1c(F)c(N)cc(-c2ncc3c(N4CCCC[C@H]5[C@H](F)[C@H]54)nc(OC[C@]45C/C(=C\F)CN4CCC54CC4)nc3c2F)c1C(F)(F)F [Example 380, 2-fluoro-5-(8-fluoro-4-((1S,7R,8S)-8-fluoro-2-azabicyclo[5.1.0]octan-2-yl)-2-(((R,E)-6′-(fluoromethylene)tetrahydrospiro[cyclopropane-1,1′-pyrrolizin]-7a′(5′H)-yl)methoxy)pyrido[4,3-d]pyrimidin-7-yl)-3-methyl-4-(trifluoromethyl)aniline]
11 | 50 to 500 nM | Cc1c(F)c(N)cc(-c2ncc3c(N4CCCC[C@H]5[C@H](F)[C@H]54)nc(OC[C@]45C/C(=C/F)CN4CCC54CC4)nc3c2F)c1C(F)(F)F [Example 381, 2-fluoro-5-(8-fluoro-4-((1S,7R,8S)-8-fluoro-2-azabicyclo[5.1.0]octan-2-yl)-2-(((R,Z)-6′-(fluoromethylene)tetrahydrospiro[cyclopropane-1,1′-pyrrolizin]-7a′(5′H)-yl)methoxy)pyrido[4,3-d]pyrimidin-7-yl)-3-methyl-4-(trifluoromethyl)aniline]
12 | < 50 nM | [2H]C([2H])(F)Oc1c(F)ccc2cccc(-c3ncc4c(N5CCCC[C@H]6[C@H](F)[C@H]65)nc(OC[C@]56C/C(=C\F)CN5CCC65CC5)nc4c3F)c12 [Example 382, (R,E)-7a′-(((8-fluoro-7-(7-fluoro-8-(fluoromethoxy-d2)naphthalen-1-yl)-4-((1S,7R,8S)-8-fluoro-2-azabicyclo[5.1.0]octan-2-yl)pyrido[4,3-d]pyrimidin-2-yl)oxy)methyl)-6′-(fluoromethylene)hexahydrospiro [cyclopropane-1,1′-pyrrolizine]]
13 | < 50 nM | [2H]C([2H])(F)Oc1c(F)ccc2cc(N)cc(-c3ncc4c(N5CCCC[C@H]6[C@H](F)[C@H]65)nc(OC[C@]56C/C(=C\F)CN5CCC65CC5)nc4c3F)c12 [Example 383, 6-fluoro-4-(8-fluoro-4-((1S,7R,8S)-8-fluoro-2-azabicyclo[5.1.0]octan-2-yl)-2-(((R,E)-6′-(fluoromethylene)tetrahydrospiro[cyclopropane-1,1′-pyrrolizin]-7a′(5′H)-yl)methoxy)pyrido[4,3-d]pyrimidin-7-yl)-5-(fluoromethoxy-d2)naphthalen-2-amine]
